pIC50: −log10 of the molar value.
How the values were obtained:
CDK5/p25 = molecular target: T1, CDK5/p25 (Homo sapiens, UniProt Q00535); assay: Enzymatic assay for CDK5 (LANCE Ultra kinase assay, FRET based); assay type: biochemical; conditions: ATP at Km
T1 construct: purchased Invitrogen PR8543B
In short: (§1)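 Inhibition was measured at ATP Km with 68 nM ULight-MBP peptide and CDK2/Cyclin A ([…]) or CDK5/p25 ([…]), using 8-dose 4-fold compound dilutions from DMSO. Kinase reaction ran 60 min at 23° C, then Eu anti-phospho-MBP plus EDTA were added for another 60 min before the fluorescence read.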

CDK1/Cyclin B = molecular target: T2, CDK1/Cyclin B (Homo sapiens, UniProt P06493); assay: Enzymatic assay for CDK1 (LANCE Ultra kinase assay, FRET based); assay type: biochemical; conditions: ATP at Km; read-out: CDK1 enzymatic activity IC50
T2 construct: purchased Invitrogen PR4768C
T2 sequence (P06493 whole entry): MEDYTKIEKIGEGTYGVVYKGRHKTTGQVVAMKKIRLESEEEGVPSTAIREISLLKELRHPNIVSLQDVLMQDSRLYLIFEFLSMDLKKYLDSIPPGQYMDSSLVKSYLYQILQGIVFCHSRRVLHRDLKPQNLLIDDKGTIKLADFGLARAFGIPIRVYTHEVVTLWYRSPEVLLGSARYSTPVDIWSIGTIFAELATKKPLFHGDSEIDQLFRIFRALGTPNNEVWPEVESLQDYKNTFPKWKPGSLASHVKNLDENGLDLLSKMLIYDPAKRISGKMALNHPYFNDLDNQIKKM
T2 sequence (P14635 whole entry partner): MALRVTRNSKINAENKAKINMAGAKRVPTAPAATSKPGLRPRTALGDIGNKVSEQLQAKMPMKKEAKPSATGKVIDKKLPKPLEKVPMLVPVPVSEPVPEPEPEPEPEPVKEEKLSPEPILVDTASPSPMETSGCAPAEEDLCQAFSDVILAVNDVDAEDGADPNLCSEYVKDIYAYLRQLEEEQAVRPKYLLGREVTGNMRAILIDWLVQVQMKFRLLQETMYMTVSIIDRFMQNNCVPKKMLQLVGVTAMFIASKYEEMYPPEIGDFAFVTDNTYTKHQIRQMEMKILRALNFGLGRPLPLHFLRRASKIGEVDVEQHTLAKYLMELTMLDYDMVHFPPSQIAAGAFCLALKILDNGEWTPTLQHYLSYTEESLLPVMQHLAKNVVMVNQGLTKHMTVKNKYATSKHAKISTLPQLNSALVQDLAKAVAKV
In short: (§2)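 Kinase activity of each purified CDK/cyclin complex was followed in a FRET format where a Europium anti-phospho-antibody recognises phosphorylated ULight-labeled peptide. ATP was held at its Km.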

CDK7/Cyclin H/MNAT1 = molecular target: T3, CDK7/Cyclin H/MNAT1 (Homo sapiens, UniProt P50613); assay: Enzymatic assay for CDK7 (LANCE Ultra kinase assay, FRET based); assay type: biochemical; conditions: for pIC50: ATP at Km
T3 construct: purchased Invitrogen PR6749B
T3 sequence (P50613 whole entry): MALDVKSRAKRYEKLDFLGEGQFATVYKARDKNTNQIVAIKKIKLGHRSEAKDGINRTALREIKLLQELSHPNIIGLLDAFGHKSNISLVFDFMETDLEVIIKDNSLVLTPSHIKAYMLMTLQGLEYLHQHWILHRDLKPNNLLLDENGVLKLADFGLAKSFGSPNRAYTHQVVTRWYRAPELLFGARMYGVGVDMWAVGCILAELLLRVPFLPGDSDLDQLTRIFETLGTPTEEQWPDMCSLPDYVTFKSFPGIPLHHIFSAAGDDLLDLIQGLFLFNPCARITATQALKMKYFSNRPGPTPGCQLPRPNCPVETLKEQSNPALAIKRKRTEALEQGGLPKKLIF
T3 sequence (P51946 whole entry partner): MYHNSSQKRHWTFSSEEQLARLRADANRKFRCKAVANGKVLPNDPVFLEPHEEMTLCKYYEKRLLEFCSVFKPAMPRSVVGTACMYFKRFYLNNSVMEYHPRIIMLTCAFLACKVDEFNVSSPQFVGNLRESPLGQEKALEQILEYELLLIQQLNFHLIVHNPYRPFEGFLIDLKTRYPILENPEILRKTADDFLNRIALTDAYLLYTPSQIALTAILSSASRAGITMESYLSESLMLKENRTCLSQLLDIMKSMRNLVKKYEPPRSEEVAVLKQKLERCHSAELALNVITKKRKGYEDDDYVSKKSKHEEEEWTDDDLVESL
T3 sequence (P51948 whole entry partner): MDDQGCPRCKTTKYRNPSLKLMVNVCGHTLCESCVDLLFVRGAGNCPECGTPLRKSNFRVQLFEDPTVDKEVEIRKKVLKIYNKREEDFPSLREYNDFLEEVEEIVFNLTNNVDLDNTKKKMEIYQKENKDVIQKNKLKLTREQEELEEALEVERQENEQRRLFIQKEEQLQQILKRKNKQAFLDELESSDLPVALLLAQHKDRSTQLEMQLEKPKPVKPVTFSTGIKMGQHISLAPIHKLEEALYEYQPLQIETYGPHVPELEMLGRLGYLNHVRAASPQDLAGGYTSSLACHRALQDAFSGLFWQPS
In short: as §2

OVCAR-3 = OVCAR-3 viability assay (CellTiter-Glo, 72 hours); assay type: cell-based; conditions: Homo sapiens; OVCAR-3 cells
Experimental: Human […] cell line, MV4-11_(ATCC, Cat #CRL-9591), NSCLC (Non-small cell lung cancer) cell line H460 (ATCC, Cat #HTB-177), A2780 (ECACC, Cat #93112519) and OVCAR-3(ATCC, Cat #HTB-161) were obtained from ATCC. Cells were grown in RPMI-1640 media (Invitrogen, Cat #22400-089) supplemented with 10% FBS (Invitrogen, Cat #10099141) and 1% penicillin/streptomycin (Invitrogen, Cat #15070063) and cultured at 37° C., 5% CO2 in a humidified chamber. All cell lines were routinely tested for mycoplasma.
To effect of the CDK7 inhibitor to inhibit the growth of target cancer cells, viability assay were conducted a 72 hour time period. Briefly, the candidate cell line was plated in 96 well plate at the following density of cells respectively. 1×10^4 cells/well for MV4-11, 5×10^3 for H460 and OVCAR-3, and 1×10^3 for A2780. After 24 hours, the cells were treated with various concentrations of the compound (ranging from 0.0015 uM to 10 uM). DMSO solvent without compound served as a control and final DMSO concentration lest than 0.1%. After 72 hours of incubation at 37° C., 5% CO2 incubator, cells were analyzed for the viability using the CellTiter-Glo Luminescent Cell Viability Assay (Promega, Cat #G7570). All viability assays were performed in duplicate and Luminescence was read using an Envision (Perkin Elmer, USA). Data was analyzed using XLfit software.

A2780 = A2780 viability assay (CellTiter-Glo, 72 hours); assay type: cell-based; conditions: Homo sapiens; A2780 cells
In short: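 Each line was plated at its own density (1×10^4, 5×10^3 and 1×10^3 cells/well for MV4-11, OVCAR-3 and A2780 respectively) in RPMI-1640 with 10% FBS. Treatment with compound, 0.0015 uM to 10 uM and DMSO under 0.1%, lasted 72 h. Surviving cells were quantified by CellTiter-Glo.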

CDK2/Cyclin A = molecular target: T4, CDK2/Cyclin A (Homo sapiens, UniProt P24941); assay: Enzymatic assay for CDK2 (LANCE Ultra kinase assay, FRET based); assay type: biochemical; conditions: ATP at Km
T4 construct: purchased Invitrogen PV6290
In short: as §1

T1 sequence (Q00535 whole entry): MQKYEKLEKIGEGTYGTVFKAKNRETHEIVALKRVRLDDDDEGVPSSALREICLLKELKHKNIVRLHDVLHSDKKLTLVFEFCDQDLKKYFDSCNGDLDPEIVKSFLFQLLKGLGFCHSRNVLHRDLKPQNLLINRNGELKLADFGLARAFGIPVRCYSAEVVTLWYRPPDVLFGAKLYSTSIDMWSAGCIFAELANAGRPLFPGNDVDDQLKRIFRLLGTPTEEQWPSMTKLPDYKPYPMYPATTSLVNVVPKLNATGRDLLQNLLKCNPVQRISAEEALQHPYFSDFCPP
T1 sequence (Q15078 99-307 partner limits assumed): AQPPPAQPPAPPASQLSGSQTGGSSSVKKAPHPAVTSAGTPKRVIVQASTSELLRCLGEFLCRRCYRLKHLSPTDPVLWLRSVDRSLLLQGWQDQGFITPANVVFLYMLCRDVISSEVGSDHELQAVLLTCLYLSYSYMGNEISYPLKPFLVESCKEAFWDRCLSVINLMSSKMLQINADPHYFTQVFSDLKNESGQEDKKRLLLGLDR

SMILES	pIC50 (CDK5/p25)	pIC50 (CDK1/Cyclin B)	pIC50 (CDK7/Cyclin H/MNAT1)	CDK1/CDK7: Selectivity of CDK7 inhibition over CDK1 inhibition (CDK7/Cyclin H/MNAT1)	CDK2/CDK7: Selectivity of CDK7 inhibition over CDK2 inhibition (CDK7/Cyclin H/MNAT1)	CDK5/CDK7: Selectivity of CDK7 inhibition over CDK5 inhibition (CDK7/Cyclin H/MNAT1)	pIC50 (OVCAR-3)	pIC50 (A2780)	pIC50 (CDK2/Cyclin A)
C=C(F)C(=O)Nc1ccc2c(-c3ccccc3CNc3nc(NCC4CCNCC4O)nc4c(C(C)C)cnn34)nccc2c1 (stereo not drawn) [Compound 160]	< 6.00	< 6.00	> 7.00	A (A indicates [fold] > 500)	A (A indicates [fold] > 500)	A (A indicates [fold] > 500)	> 6.00	> 6.00	< 6.00
C=CC(=O)Nc1ccc2c(-c3ccccc3CNc3nc(NC[C@H]4CNC[C@@H]4O)nc4c(C(C)C)cnn34)nccc2c1 [Compound 111]	< 6.00	< 6.00	> 7.00	A (A indicates [fold] > 500)	A (A indicates [fold] > 500)	A (A indicates [fold] > 500)	> 6.00	> 6.00	< 6.00
C=C(F)C(=O)Nc1ccc2c(-c3ccccc3CNc3nc(NC[C@@H]4CCNC[C@@H]4O)nc4c(C(C)C)cnn34)nccc2c1 [Compound 162]	< 6.00	< 6.00	> 7.00	A (A indicates [fold] > 500)	A (A indicates [fold] > 500)	A (A indicates [fold] > 500)	5.00 to 6.00	> 6.00	< 6.00
C=C(F)C(=O)Nc1ccc2c(-c3ccccc3CNc3cc(NC4CCC(OC)CC4)nc4c(C(C)C)cnn34)nccc2c1 (stereo not drawn) [Compound 81]	< 6.00	< 6.00	6.00 to 7.00	B (B indicates 50 < [fold] ≤ 500)	B (B indicates 50 < [fold] ≤ 500)	B (B indicates 50 < [fold] ≤ 500)	> 6.00	> 6.00	< 6.00
C=C(F)C(=O)Nc1ccc2c(-c3ccccc3CNc3nc(NC4CCC(OC)CC4)nc4c(C(C)C)cnn34)nccc2c1 (stereo not drawn) [Compound 84]	< 6.00	< 6.00	6.00 to 7.00	B (B indicates 50 < [fold] ≤ 500)	B (B indicates 50 < [fold] ≤ 500)	B (B indicates 50 < [fold] ≤ 500)	> 6.00	> 6.00	< 6.00
CC(C)c1cnn2c(NCc3ccccc3-c3nccc4cc(NC(=O)/C=C/CN(C)C)ccc34)nc(NC[C@H]3CNC[C@@H]3O)nc12 [Compound 109]	< 6.00	< 6.00	> 7.00	A (A indicates [fold] > 500)	A (A indicates [fold] > 500)	A (A indicates [fold] > 500)	5.00 to 6.00	5.00 to 6.00	< 6.00
CC(C)c1cnn2c(NCc3ccccc3-c3nccc4cc(NC(=O)/C=C/CN(C)C)ccc34)nc(OC3CC4CCC(C3)N4C)nc12 (stereo not drawn) [Compound 122]	< 6.00	< 6.00	> 7.00	A (A indicates [fold] > 500)	A (A indicates [fold] > 500)	A (A indicates [fold] > 500)	> 6.00	> 6.00	< 6.00
COC1CC2CCC(C1)N2c1nc(NCc2ccccc2-c2nccc3cc(NC(=O)/C=C/CN(C)C)ccc23)n2ncc(C(C)C)c2n1 (stereo not drawn) [Compound 103]	< 6.00	< 6.00	> 7.00	B (B indicates 50 < [fold] ≤ 500)	B (B indicates 50 < [fold] ≤ 500)	B (B indicates 50 < [fold] ≤ 500)	> 6.00	> 6.00	< 6.00
CC(C)c1cnn2c(NCc3ccccc3-c3nccc4cc(NC(=O)/C=C/CN(C)C)ccc34)nc(N3CCc4sccc4C3)nc12 [Compound 101]	< 6.00	< 6.00	6.00 to 7.00	B (B indicates 50 < [fold] ≤ 500)	B (B indicates 50 < [fold] ≤ 500)	B (B indicates 50 < [fold] ≤ 500)	> 6.00	> 6.00	< 6.00
Cc1nc(NCc2ccccc2-c2nccc3cc(NC(=O)/C=C/CN(C)C)ccc23)n2ncc(C(C)C)c2n1 [Compound 167]	< 6.00	< 6.00	6.00 to 7.00	B (B indicates 50 < [fold] ≤ 500)	B (B indicates 50 < [fold] ≤ 500)	B (B indicates 50 < [fold] ≤ 500)	> 6.00	> 6.00	< 6.00
C=C(F)C(=O)Nc1ccc2c(-c3ccccc3CNc3nc(NC[C@H]4CCN(C(C)C)C[C@@H]4O)nc4c(C(C)C)cnn34)nccc2c1 [Compound 168]	< 6.00	< 6.00	> 7.00	B (B indicates 50 < [fold] ≤ 500)	B (B indicates 50 < [fold] ≤ 500)	B (B indicates 50 < [fold] ≤ 500)	> 6.00	> 6.00	< 6.00
C=CC(=O)Nc1ccc2c(-c3ccccc3CNc3cc(N4CCC5(CC4)OCCO5)nc4c(C(C)C)cnn34)nccc2c1 [Compound 118]	< 6.00	< 6.00	> 7.00	A (A indicates [fold] > 500)	A (A indicates [fold] > 500)	A (A indicates [fold] > 500)	> 6.00	> 6.00	< 6.00

Reference: patent publication US12606561B2, “Substituted pyrazolo[1,5-a][1,3,5]triazines as CDK inhibitors” (QURIENT CO., LTD., priority 2018, dated 2026)
